Results as given in patent US8318899B2, “Lytic domain fusion constructs and methods of making and using same” (Board of Supervisors of Louisiana State University and …, priority 2008, dated 2012).

Tested on: NIH:OVCAR-3 xenograft
Assay: OVCAR-3 ovarian cancer xenograft
Type: in vivo
Conditions: for tumor volume during treatment: Phor18-LHRH 0.02-2 mg/kg, CLIP71 2 mg/kg, cisplatinum 10 mg/kg
Protocol: The xenograft model of the OVCAR-3 human ovarian cancer cell line that present functional LHRH receptors was used in this study. OVCAR-3 represents a slow growing xenograft model and secretes the tumor marker (cancer antigen 125, or […]). It's secretion can be used as treatment response and is a measure of drug activity.
In brief, Nu/Nu female mice, inbred strain, age 5 weeks (Harlan-Sprague Dawley) were injected subcutaneously with a NIH:OVCAR-3 cells/Matrigel suspension (4.6×10^6 cells/mouse). Treatment was started on day 33 after tumor cell injection when the tumors were established and continued on days 41 and 47. The doses for the 3 weekly injections were 0.02, 0.2 and 2 mg/kg body weight, given as a single bolus intravenous injection via lateral tail vein administered once a week for three weeks on days 33, 41 and 47. Necropsies were conducted on day 52. Data are presented as mean SEM. Arrows show dosing.
A group of 9 tumor bearing mice was sacrificed on day 33 and served as baseline group. All mice were necropsied 51-52 days after tumor cell injection. Tumor volumes and bodyweights were recorded twice weekly during the study, as well as overall veterinarian examination of mice was conducted.
Primary tumors, liver, kidney, pancreas, heart, lung, and spleen were collected, fixed in formalin and prepared for histological evaluation. Tumor weights were measured at necropsy, part of the tumors were frozen at −80° C. for LH/CG and LHRH receptor assay determination.
As a biomarker for drug activity, CA125 was determined in serum, collected from each individual mouse at necropsy using a Enzyme Linked Immunoassay for quantitative determination of ovarian cancer antigen CA125 (Assay kit Genway, Biotech, Inc. San Diego, Calif., Catalog #40-052-115009, # BC-1013 according to the manufacturer).
LHRH receptor levels were assessed from formalin fixed tumors. Quantitative immunoperoxidase image analysis was conducted with the Ventana Image Analysis System (VIAS) adjunctive computer assisted image analysis system functionally connected to an interactive microscope (Axio Imager). The quantitative analysis was conducted with the program for quantification of Her2/neu receptor that included morphometric and colorimetric analysis. Receptor status results were reported as percentage of cells showing positive staining of the LHRH receptors under the following criteria: 0 non-immunoreactive, 1+: 1-25% positive, 2+: 26-50% positive, 3+: 51-75% positive cells.

`N.N.[Cl][Pt][Cl]` [Cisplatinum, reference compound] was tested, and the “tumor volume during treatment” value was “no reduction in tumor volume”, the “tumor volume during treatment” value (listed as cisplatinum) was “tumor growth was observed” and the “tumor weights at necropsy” value (mouse, in vivo) was “not effective in reducing tumor weights”.
